Biological target: T1, human COX-2 enzyme (cyclooxygenase II) (Homo sapiens, UniProt P35354)
T1 sequence (P35354 18-604): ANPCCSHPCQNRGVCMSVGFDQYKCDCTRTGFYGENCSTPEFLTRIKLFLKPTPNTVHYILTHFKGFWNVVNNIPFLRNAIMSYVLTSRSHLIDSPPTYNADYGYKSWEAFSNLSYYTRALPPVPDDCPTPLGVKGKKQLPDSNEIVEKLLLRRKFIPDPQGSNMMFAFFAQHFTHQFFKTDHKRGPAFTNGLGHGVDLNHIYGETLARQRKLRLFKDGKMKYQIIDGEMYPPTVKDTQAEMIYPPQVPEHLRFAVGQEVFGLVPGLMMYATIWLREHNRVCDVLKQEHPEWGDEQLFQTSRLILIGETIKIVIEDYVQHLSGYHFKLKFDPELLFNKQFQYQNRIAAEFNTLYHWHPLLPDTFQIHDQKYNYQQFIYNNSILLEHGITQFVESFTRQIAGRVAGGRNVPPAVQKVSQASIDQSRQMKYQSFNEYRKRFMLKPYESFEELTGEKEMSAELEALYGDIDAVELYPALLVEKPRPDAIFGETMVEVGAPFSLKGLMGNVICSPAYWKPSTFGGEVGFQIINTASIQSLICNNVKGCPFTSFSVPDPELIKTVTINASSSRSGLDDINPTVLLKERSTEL
Assay: human COX-2 activity inhibition assay
Assay type: biochemical

IC50: 2000 nM
Substance: homoneoprofen [compound 2]

— article PMC5008855 (Organic & biomolecular chemistry, 2016)
